In PubChem BioAssay (NCI):
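Values below derive from 48-hour exposures of cells grown in 96-well plates, with endpoints linearly interpolated between the two concentrations bracketing the appropriate inhibition level. The concentration for 50% growth inhibition is given as GI50. TGI denotes the concentration required for complete inhibition of growth.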

Tests used:
Test in all cases: NCI tumour cell line growth inhibition, 48 h
NCI-H522 lung = test system: NCI-H522 lung
NCI-H460 lung = test system: NCI-H460 lung
SNB-75 CNS = test system: SNB-75 CNS
PC-3 prostate = test system: PC-3 prostate
BT-549 breast = test system: BT-549 breast
786-0 renal = test system: 786-0 renal
NCI-H23 lung = test system: NCI-H23 lung
SK-MEL-5 melanoma = test system: SK-MEL-5 melanoma
A549 NSCLC = test system: A549 NSCLC
LOX IMVI melanoma = test system: LOX IMVI melanoma
SK-MEL-2 melanoma = test system: SK-MEL-2 melanoma
SR leukemia = test system: SR leukemia
K-562 leukemia = test system: K-562 leukemia
U251 CNS = test system: U251 CNS
MOLT-4 leukemia = test system: MOLT-4 leukemia
SF-539 CNS = test system: SF-539 CNS
MDA-MB-231 breast = test system: MDA-MB-231 breast
RPMI-8226 leukemia = test system: RPMI-8226 leukemia
HOP-62 NSCLC = test system: HOP-62 NSCLC
SF-295 CNS = test system: SF-295 CNS
COLO 205 colon = test system: COLO 205 colon
KM12 colon = test system: KM12 colon
DU-145 prostate = test system: DU-145 prostate
CCRF-CEM leukemia = test system: CCRF-CEM leukemia
OVCAR-3 ovarian = test system: OVCAR-3 ovarian
SW-620 colon = test system: SW-620 colon
IGROV1 ovarian = test system: IGROV1 ovarian
MDA-N = test system: MDA-N
HCT-15 colon = test system: HCT-15 colon

**Q.** Which results are given for `CC(=O)OCc1cnc2c3c(nc4ccccc4c13)C(=O)c1cccnc1-2`?
**A.** GI50 (NCI-H522 lung): 43.4 nM; TGI (NCI-H522 lung): 330 nM; GI50 (NCI-H460 lung): 18.6 nM; TGI (NCI-H460 lung): 147 nM; GI50 (SNB-75 CNS): 68.3 nM; TGI (SNB-75 CNS): 414 nM; GI50 (PC-3 prostate): 133 nM; TGI (PC-3 prostate): 2420 nM; GI50 (BT-549 breast): 150 nM; TGI (BT-549 breast): 1760 nM; GI50 (786-0 renal): < 10 nM; TGI (786-0 renal): 30.5 nM; GI50 (NCI-H23 lung): 118 nM; TGI (NCI-H23 lung): 612 nM; GI50 (SK-MEL-5 melanoma): 37.3 nM; TGI (SK-MEL-5 melanoma): 106 nM; GI50 (A549 NSCLC): 58.6 nM; TGI (A549 NSCLC): 14900 nM; GI50 (LOX IMVI melanoma): < 10 nM; TGI (LOX IMVI melanoma): 51.7 nM; GI50 (SK-MEL-2 melanoma): 482 nM; TGI (SK-MEL-2 melanoma): 1960 nM; GI50 (SR leukemia): < 10 nM; TGI (SR leukemia): > 100000 nM; GI50 (K-562 leukemia): 47.8 nM; GI50 (U251 CNS): 23.7 nM; GI50 (MOLT-4 leukemia): 290 nM; TGI (MOLT-4 leukemia): > 20500 nM; GI50 (SF-539 CNS): < 13.1 nM; TGI (SF-539 CNS): 82 nM; GI50 (MDA-MB-231 breast): 131 nM; TGI (MDA-MB-231 breast): 647 nM; GI50 (RPMI-8226 leukemia): 168 nM; TGI (RPMI-8226 leukemia): 983 nM; GI50 (HOP-62 NSCLC): 27 nM; TGI (HOP-62 NSCLC): 163 nM; GI50 (SF-295 CNS): 172 nM; TGI (SF-295 CNS): 751 nM; GI50 (COLO 205 colon): 321 nM; TGI (COLO 205 colon): 1010 nM; GI50 (KM12 colon): 167 nM; TGI (KM12 colon): 504 nM; GI50 (DU-145 prostate): < 18.7 nM; TGI (DU-145 prostate): 147 nM; GI50 (CCRF-CEM leukemia): 25.1 nM; GI50 (OVCAR-3 ovarian): 30 nM; GI50 (SW-620 colon): < 11.3 nM; TGI (SW-620 colon): 500 nM; GI50 (IGROV1 ovarian): 124 nM; TGI (IGROV1 ovarian): 1890 nM; GI50 (MDA-N): 110 nM; TGI (MDA-N): 366 nM; GI50 (HCT-15 colon): < 10 nM; TGI (HCT-15 colon): 127 nM
